Data taken from ChEMBL document CHEMBL1201862, “PubChem BioAssay data set” (2004).
Activity calls are given as the source filed them.

Assays:
[1] = loss of viability in HepG2 cells – cell-based, CellTiter-Glo, cherry-picked, cytotoxicity control for Shn3 inhibitor project, dose response (AID 624134); format: functional
[2] = biological target: T1, Corticotropin-releasing factor receptor 2/Corticotropin-releasing factor-binding protein (Homo sapiens, UniProt P24387+Q13324); assay: activators of CRF receptor 2 with binding protein – uHTS hits, confirmation (AID 602473); format: functional; settings: read-out: EC50_Mean
T1 sequence (Q13324 whole entry): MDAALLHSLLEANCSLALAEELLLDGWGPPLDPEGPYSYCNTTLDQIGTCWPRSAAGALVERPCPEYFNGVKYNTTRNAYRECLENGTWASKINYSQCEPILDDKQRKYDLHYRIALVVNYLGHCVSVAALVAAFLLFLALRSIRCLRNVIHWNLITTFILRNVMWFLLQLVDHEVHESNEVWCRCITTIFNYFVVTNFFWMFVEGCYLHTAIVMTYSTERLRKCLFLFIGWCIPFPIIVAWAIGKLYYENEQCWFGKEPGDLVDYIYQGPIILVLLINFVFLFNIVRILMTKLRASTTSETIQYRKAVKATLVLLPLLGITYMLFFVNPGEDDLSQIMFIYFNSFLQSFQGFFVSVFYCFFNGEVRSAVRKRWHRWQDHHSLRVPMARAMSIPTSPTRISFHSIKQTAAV
T1 sequence (P24387 whole entry): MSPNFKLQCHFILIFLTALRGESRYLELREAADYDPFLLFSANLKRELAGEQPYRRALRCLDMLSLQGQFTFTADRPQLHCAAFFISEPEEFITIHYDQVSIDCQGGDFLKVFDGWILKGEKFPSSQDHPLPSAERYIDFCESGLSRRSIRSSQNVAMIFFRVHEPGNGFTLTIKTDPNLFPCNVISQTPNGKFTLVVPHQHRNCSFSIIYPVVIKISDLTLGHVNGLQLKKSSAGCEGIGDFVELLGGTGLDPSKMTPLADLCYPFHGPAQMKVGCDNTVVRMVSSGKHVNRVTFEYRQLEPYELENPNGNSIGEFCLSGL

[3] = non-specific 3'UTR reporter inhibition in Clone20-Shn3RL – cell-based, Renilla luciferase, cherry-picked, counter-screen for Shn3 inhibitor project, dose response (AID 624133); format: functional
[4] = reduction of Shn3 3'UTR-driven luciferase in osteoblasts – cell-based, Clone20 osteoblasts, firefly luciferase, cherry-picked, dose response (AID 624132); format: functional;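 further: firefly luciferase luminescence from reporter carrying the Shn3 3'UTR in osteoblasts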
[5] = microbe, parasite or virus in culture; format: functional; settings: Mycobacterium tuberculosis
Cytochrome P450 1A2 = biological target: T2, Cytochrome P450 1A2 (Homo sapiens, UniProt P05177);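 further: PubChem cytochrome P450 panel assay, CYP1A2 panel member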
T2 sequence (P05177 whole entry): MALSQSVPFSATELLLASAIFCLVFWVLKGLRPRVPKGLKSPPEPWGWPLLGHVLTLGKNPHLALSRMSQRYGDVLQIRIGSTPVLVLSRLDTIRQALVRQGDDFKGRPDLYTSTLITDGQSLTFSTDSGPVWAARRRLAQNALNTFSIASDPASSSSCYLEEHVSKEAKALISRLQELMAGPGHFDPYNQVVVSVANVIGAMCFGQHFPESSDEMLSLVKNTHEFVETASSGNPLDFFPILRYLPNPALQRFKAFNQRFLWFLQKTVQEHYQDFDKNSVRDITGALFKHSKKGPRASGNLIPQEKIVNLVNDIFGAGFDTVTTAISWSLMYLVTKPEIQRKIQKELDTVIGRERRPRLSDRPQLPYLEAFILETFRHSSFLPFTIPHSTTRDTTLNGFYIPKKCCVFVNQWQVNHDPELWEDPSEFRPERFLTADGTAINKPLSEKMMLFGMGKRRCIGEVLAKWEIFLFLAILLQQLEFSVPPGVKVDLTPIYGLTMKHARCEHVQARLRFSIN

Cytochrome P450 3A4 = Cytochrome P450 3A4 (Homo sapiens, UniProt P08684);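 further: CYP3A4 tested as one member of a cytochrome P450 panel screen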
[6] = biological target: T3, Heat shock factor protein 1 (Mus musculus, UniProt P38532); assay: enhancement of HSF1-driven luciferase signal – cell-based, NIH3T3, luminescence, dose retest, confirmation (AID 435004); format: functional;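 further: stress induced by proteasome inhibitor MG132 added 30 min after compound; luciferase reporter driven by HSF1 response element in NIH3T3 cells; actives raise luminescence as potentiators of the MG132 stress response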
T3 sequence (P38532 whole entry): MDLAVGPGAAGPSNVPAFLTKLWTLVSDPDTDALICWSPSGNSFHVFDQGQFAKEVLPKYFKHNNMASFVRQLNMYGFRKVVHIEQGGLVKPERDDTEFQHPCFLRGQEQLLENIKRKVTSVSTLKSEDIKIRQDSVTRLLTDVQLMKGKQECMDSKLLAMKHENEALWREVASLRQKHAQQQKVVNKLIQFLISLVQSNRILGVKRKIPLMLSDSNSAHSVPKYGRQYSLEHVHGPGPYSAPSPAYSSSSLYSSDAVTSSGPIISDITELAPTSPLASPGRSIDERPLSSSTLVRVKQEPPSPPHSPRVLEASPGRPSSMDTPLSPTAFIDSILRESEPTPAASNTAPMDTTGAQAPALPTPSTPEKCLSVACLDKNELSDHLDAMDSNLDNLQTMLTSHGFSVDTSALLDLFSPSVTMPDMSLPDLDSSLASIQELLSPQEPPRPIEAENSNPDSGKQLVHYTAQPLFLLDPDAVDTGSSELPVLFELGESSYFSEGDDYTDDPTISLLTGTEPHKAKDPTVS

[7] = NIH3T3 cell viability loss – ATP luminescence, mouse fibroblasts, counter-screen, dose response (AID 2010); format: functional, cell-based;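 further: cells exposed to compound for about 90 hours before reading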
[8] = Trypanosoma cruzi growth suppression in host cells – NIH3T3 host cells, beta-gal luminescence, confirmation (AID 2044); format: functional, cell-based;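 further: intracellular parasites grown in NIH/3T3 mouse fibroblasts as host cells; luminescent beta-galactosidase reporter signal from transgenic T. cruzi replicating inside host cells; inhibitors lower the luminescence signal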
Cytochrome P450 2C19 = Cytochrome P450 2C19 (Homo sapiens, UniProt P33261); assay: Cytochrome panel assay with activity outcomes. Panel member name: p450-cyp2c19 Compounds with AC50 equal or less than 10 uM are considered active; format: functional
[9] = biological target: FAD-linked sulfhydryl oxidase ALR (Homo sapiens, UniProt P55789); assay: ALR-catalysed DTT oxidation blockers – biochemical, H2O2 detection, luminescence, cherry-pick, dose response (AID 493248)
[10] = biological target: T3, Heat shock factor protein 1; assay: decrease of HSF1-responsive luciferase luminescence – cell-based, NIH3T3, dose retest, confirmation (AID 2382); format: functional;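 further: NIH3T3 fibroblasts with HSF1-driven luciferase reporter stressed by proteasome inhibitor MG132; luminescence from HSF1-driven luciferase expression after 8 hours of MG132 stress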
Cytochrome P450 2C9 = Cytochrome P450 2C9 (Homo sapiens, UniProt P11712)
[11] = system: Streptococcus sp. 'group A'; assay: Streptococcus pyogenes SK(-)GAS viability under kanamycin – luminescence, BacTiterGlo, confirmation, counter-screen for streptokinase expression inhibitor project, dose response (AID 1900); format: functional, organism-based
Streptococcus = assay: GAS UMAA2166 growth inhibition – luminescence, BacTiterGlo, counter-screen for streptokinase expression inhibitor project, dose response (AID 1915); format: functional, organism-based;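 further: potency for reduction of bacterial viability or growth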
[12] = Luminescence Cell-Based Dose Retest to Confirm Inhibitors of Cancer Stem Cells. [Related pubchem assays (depositor defined):AID2717, AID2721]; format: functional; settings: Homo sapiens
[13] = viability of HCT116 lacking mutant beta-catenin – cell-based, human colon tumor, dose response (AID 1045); format: functional;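 further: HCT116 colon tumor cells with beta catenin knocked out; cells exposed to compound for 60 hours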
[14] = viability of PTEN-deleted HCT116 cells – cell-based, HCT116 PTEN knockout, dose response (AID 1047); format: functional;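 further: HCT116 colon tumor cells with PTEN knocked out; cells exposed to compound for 60 hours before readout; potency for loss of cell viability measured by luminescence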
[15] = biological target: T4, RNA-binding protein pos-1 (Caenorhabditis elegans, UniProt G5EF15); assay: disruptors of C. elegans POS-1 RNA interaction – biochemical, fluorescence polarization, dose response (AID 1964);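 further: purified POS-1 fused to maltose binding protein made in E. coli; potency of compounds blocking POS-1 binding to fluorescent RNA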
T4 sequence (G5EF15 whole entry): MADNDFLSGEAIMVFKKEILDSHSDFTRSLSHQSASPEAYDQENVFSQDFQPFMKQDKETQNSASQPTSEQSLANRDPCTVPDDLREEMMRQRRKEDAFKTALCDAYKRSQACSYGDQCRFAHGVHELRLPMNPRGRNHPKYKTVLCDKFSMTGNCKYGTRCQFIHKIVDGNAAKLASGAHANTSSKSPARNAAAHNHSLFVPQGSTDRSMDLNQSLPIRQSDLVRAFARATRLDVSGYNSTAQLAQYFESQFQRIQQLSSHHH

[16] = biological target: Luciferin 4-monooxygenase (Photinus pyralis, UniProt P08659); assay: inhibition of purified Photinus pyralis luciferase – biochemical, luminescence, dose response (AID 1891)
[17] = biological target: T5, Zinc finger protein mex-5 (Caenorhabditis elegans, UniProt Q9XUB2); assay: potency of MEX-5 RNA-binding blockers – biochemical, C. elegans, fluorescence polarization, dose response (AID 1960)
T5 sequence (Q9XUB2 whole entry): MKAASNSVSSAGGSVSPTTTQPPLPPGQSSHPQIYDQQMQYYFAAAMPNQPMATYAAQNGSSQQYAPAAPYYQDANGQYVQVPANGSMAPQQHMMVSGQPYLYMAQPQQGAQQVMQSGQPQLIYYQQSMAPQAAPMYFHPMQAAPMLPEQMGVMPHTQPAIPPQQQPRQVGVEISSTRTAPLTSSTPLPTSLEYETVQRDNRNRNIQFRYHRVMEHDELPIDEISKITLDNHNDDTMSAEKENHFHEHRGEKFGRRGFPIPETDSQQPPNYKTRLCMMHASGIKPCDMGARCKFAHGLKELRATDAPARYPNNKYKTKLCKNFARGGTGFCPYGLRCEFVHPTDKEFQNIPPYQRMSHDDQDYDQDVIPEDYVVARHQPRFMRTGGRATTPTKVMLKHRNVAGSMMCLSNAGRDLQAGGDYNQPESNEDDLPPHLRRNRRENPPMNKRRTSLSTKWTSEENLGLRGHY

[18] = Luminescence Cell-Based Dose Confirmation HTS to Identify Inhibitors of Platelet Dense Granule Release. [Related pubchem assays: 1663 (Primary HTS), 1678 (Summary of Project)]; format: functional

Chain of FAD-linked sulfhydryl oxidase ALR (P55789 whole entry): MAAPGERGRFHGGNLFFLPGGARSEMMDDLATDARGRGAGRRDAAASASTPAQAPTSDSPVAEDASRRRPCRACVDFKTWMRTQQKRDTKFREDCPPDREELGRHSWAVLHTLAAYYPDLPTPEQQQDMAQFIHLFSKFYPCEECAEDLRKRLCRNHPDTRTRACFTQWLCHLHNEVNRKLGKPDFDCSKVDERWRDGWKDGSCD
Chain of Luciferin 4-monooxygenase (P08659 whole entry): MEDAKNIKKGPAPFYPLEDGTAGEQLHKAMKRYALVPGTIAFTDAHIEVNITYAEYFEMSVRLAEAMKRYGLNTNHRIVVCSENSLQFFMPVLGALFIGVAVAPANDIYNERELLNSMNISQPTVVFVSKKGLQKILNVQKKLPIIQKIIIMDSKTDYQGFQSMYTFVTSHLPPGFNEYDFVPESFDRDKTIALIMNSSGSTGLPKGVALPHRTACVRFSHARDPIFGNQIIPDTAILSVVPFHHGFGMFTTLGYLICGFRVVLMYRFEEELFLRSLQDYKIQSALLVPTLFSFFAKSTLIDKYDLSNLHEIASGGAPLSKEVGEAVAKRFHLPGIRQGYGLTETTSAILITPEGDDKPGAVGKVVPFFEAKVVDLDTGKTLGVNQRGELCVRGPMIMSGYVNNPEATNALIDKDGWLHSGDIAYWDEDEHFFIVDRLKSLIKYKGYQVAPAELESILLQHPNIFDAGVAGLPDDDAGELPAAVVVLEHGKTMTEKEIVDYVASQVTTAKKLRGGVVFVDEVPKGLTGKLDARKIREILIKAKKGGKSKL
Chain of Cytochrome P450 3A4 (P08684 whole entry): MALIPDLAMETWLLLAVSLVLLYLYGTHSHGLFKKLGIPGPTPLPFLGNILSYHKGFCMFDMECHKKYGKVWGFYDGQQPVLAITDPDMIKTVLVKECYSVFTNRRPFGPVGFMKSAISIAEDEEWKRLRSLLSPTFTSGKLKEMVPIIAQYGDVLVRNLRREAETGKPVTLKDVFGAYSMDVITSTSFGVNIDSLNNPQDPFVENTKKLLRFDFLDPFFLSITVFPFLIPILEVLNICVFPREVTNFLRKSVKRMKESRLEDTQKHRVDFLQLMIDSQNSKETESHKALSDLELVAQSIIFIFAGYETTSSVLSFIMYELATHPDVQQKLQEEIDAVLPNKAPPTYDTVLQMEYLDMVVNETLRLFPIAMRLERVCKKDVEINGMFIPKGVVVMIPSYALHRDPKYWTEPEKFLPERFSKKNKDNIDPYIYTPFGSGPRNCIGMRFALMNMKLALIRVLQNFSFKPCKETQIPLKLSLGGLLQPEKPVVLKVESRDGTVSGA
Chain of Cytochrome P450 2C19 (P33261 whole entry): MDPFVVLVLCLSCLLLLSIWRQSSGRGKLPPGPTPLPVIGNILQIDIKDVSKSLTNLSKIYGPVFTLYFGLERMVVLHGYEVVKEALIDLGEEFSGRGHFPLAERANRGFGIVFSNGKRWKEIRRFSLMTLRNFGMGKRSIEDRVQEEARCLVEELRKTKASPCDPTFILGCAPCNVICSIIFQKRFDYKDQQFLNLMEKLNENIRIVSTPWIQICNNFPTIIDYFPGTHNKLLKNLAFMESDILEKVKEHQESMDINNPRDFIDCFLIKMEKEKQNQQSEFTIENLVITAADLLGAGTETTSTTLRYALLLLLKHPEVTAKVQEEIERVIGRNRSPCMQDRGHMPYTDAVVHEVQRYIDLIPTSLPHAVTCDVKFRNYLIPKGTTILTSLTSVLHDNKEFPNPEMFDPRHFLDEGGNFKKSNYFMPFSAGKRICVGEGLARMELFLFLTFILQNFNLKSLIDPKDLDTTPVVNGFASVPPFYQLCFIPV
Chain of Cytochrome P450 2C9 (P11712 whole entry): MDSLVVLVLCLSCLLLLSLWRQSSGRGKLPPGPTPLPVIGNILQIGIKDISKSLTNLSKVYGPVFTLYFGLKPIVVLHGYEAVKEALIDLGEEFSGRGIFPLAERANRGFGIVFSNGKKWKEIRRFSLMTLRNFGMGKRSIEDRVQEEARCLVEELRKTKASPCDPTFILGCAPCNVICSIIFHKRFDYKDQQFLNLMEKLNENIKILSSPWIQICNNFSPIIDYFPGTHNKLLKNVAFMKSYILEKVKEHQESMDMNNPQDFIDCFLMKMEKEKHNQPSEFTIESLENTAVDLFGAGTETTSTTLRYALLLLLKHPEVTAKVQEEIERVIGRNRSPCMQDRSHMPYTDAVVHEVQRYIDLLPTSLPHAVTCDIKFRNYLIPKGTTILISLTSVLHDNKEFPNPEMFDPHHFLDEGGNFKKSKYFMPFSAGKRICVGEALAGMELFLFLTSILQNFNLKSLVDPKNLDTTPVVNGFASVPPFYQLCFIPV

CC(C)Cc1ccc(C(C)C(=O)Nc2ccccc2O)cc1 (stereo unspecified)
AC50 [1]: 6.63 µM (active)
EC50 [2]: 5.7 µM (active)
AC50 [3]: 4.26 µM (active)
AC50 [4]: 1.89 µM (active)

Cc1sc2ncnc(Oc3ccc(-n4ccnc4)cc3)c2c1C
CC50 [5]: > 40 µM (active)

Cc1cc(O)c(C(C)C)cc1NC(=O)Nc1cccc2ccccc12
AC50 (Cytochrome P450 1A2): 0.794 µM (inconclusive)
AC50 (Cytochrome P450 3A4): 3.16 µM (inconclusive)

COc1ccc(NC(=O)c2[nH]c(C)c(C(C)=O)c2C)cc1S(=O)(=O)Nc1ccc(Br)cc1
EC50 [6]: > 260 µM (inactive)
EC50 [7]: > 60 µM (not active)
EC50 [8]: 1.12 µM (active)

COc1cc(OC)cc(C(=O)NCC(=O)OC2CCOC2=O)c1 (stereo unspecified)
AC50 (Cytochrome P450 1A2): 0.0316 µM (inconclusive)
AC50 (Cytochrome P450 2C19): inconclusive

O=C(NNS(=O)(=O)c1ccc(F)cc1)c1cc2ccccc2cc1O
AC50 [9]: 4.07 µM (active)

CCOC(=O)C1(CCOc2ccccc2)CCN(Cc2cccc(-n3cccn3)c2)CC1
EC50 [10]: > 195 µM (not active)
CC50 [5]: > 40 µM (active)

Cc1nn(C)c(Cl)c1S(=O)(=O)N[C@@H](c1ccccc1)[C@]1(C)C[C@H]1[C@@H](C)C(=O)Nc1ccc2ccccc2c1
AC50 (Cytochrome P450 1A2): 5.01 µM (inconclusive)
AC50 (Cytochrome P450 2C9): 6.31 µM (inconclusive)

COc1ccc(N2CCN(C(=O)c3ccc(SC)cc3OC)CC2)cc1
AC50 [9]: 6.05 µM (active)

FC(F)(F)c1cccc(NC(S)=NCc2ccccn2)c1
EC50 [6]: > 260 µM (inactive)

Cc1ccccc1-c1cncnc1NC1CCNCC1
AC50 (Cytochrome P450 1A2): 0.00794 µM (inconclusive)

COc1ccc(NS(=O)(=O)c2ccc3[nH]c(COc4cccc5ccccc45)nc3c2)cc1
EC50 [11]: 6.33 µM (active)
EC50 (Streptococcus): 91 µM (active)
AC50 [12]: 3.87 µM (active)
CC50 [5]: 32.6 µM (active)

Cc1ccc(NC(=O)C2CCN(S(=O)(=O)c3ccc4c(c3)NC(=O)C(C)S4)CC2)cc1C (stereo unspecified)
AC50 [1]: 68.3 µM (active)
AC50 [3]: 6.43 µM (active)
AC50 [4]: 2.61 µM (active)

CC(C)C(=O)C(C)(C)CCc1ccccn1
AC50 (Cytochrome P450 1A2): 2.51 µM (inconclusive)

N#CCCn1cc(/C=C2\NC(=S)N(c3ccccc3)C2=O)c(-c2ccc(-c3ccccc3)cc2)n1
CC50 [5]: 38.2 µM (active)

Nc1ncncc1-c1ccc([N+](=O)[O-])cc1
AC50 (Cytochrome P450 1A2): 28.2 µM (inconclusive)
AC50 (Cytochrome P450 2C19; read-out: AC50): 10 µM (inconclusive)
AC50 (Cytochrome P450 3A4): 12.6 µM (inconclusive)

CC1CC(C)(C)N(C(=O)NC2CCCCC2)c2ccccc21 (stereo unspecified)
EC50 [6]: > 260 µM (inactive)

Cc1ccc(S(=O)(=O)c2cccc(S(=O)(=O)N3CCCC3)c2)cc1S(=O)(=O)N1CCCC1
EC50 [13]: 28.3 µM (active)
EC50 [14]: 35.7 µM (active)

Cc1cc(C)n2cc(COc3ccc4ccccc4c3)nc2n1
EC50 [6]: > 260 µM (inconclusive)

COc1ccc2c(c1)N(CC[C@H]1CCCCN1C)c1ccccc1S2
AC50 (Cytochrome P450 1A2): 1.26 µM (inconclusive)

O=C(NN=C1CCCC1)c1cc(-c2ccccc2)[nH]n1
AC50 [9]: 16.9 µM (active)

COC(=O)C1=C(C)N=C2SC(C#N)=C(N)N2C1c1cccc(OC)c1 (stereo unspecified)
EC50 [15]: > 300 µM (not active)
EC50 [16]: > 112 µM (not active)
EC50 [17]: > 300 µM (not active)
EC50 [18]: > 112 µM (not active)

CC1(CCC(=O)N2CCCC(Nc3ccc(F)cc3)C2)CC1 (stereo unspecified)
AC50 [9]: 5.27 µM (active)

Cc1ccc(NC2CCCN(C(=O)c3cn4cccc(C)c4n3)C2)cc1C (stereo unspecified)
AC50 [9]: 9.91 µM (active)

COC(=O)N1CCC[C@@]2(CCN(C(=O)Nc3ccccc3)C2)C1
AC50 (Cytochrome P450 1A2): 12.6 µM (inconclusive)

CCNC(=S)N/N=C/c1ccc(-c2ccccc2)o1
EC50 [6]: > 260 µM (inactive)

BrC(/C=C\c1ccccc1)=N/Nc1nc(N2CCOCC2)nc(N2CCOCC2)n1
EC50 [6]: > 260 µM (inactive)

COc1ccc(/C=N/NC(=O)c2ccncc2)cc1CN1CCN(c2ccc(F)cc2)CC1
EC50 [16]: > 112 µM (not active)
AC50 [9]: 7.46 µM (active)
EC50 [18]: > 112 µM (not active)

O=C1CC(=C(c2ccccc2)c2ccccc2)C(=O)N1CCCCN1CCN(c2ccccc2)CC1
CC50 [5]: > 40 µM (active)
